Measured values: ChEMBL document CHEMBL1157690, “Reliability of bond dissociation enthalpy calculated by the PM6 method and experimental TEAC values in antiradical QSAR of flavonoids” (Bioorg Med Chem, 2010)

Tests used:
[1] = ABTS radical scavenging activity assessed as trolox equivalent antioxidant capacity; format: physicochemical
[2] = DPPH radical scavenging activity assessed as trolox equivalent antioxidant capacity; format: functional
[3] = Antioxidant activity assessed as ABTS radical scavenging activity; format: functional

Row | Compound | Activity [1] [MU] | Activity [2] [MU] | Activity [3] [mg/L]
1 | O=c1cc(-c2ccccc2)oc2cc(O)cc(O)c12 [CHRYSIN] | 0.081 | 0.053 | –
2 | O=c1cc(-c2ccc(O)c(O)c2)oc2cc(O)cc(O)c12 [LUTEOLIN] | 2.18 | 2.24 | –
3 | O=c1c(O)c(-c2ccc(O)cc2O)oc2cc(O)cc(O)c12 [MORIN] | 2.68 | 2.75 | –
4 | O=c1c(O)c(-c2ccccc2)oc2cc(O)cc(O)c12 [GALANGIN] | 1.12 | 0.705 | –
5 | O=C(CCc1ccc(O)cc1)c1c(O)cc(O)cc1O [PHLORETIN] | 1.79 | 1.24 | –
6 | O=c1cc(-c2ccc(O)cc2)oc2cc(O[C@@H]3O[C@H](CO)[C@@H](O)[C@H](O)[C@H]3O)cc(O)c12 [APIGETRIN] | 0.083 | 0.05 | –
7 | Oc1cc(O)c2c(c1)OC(c1ccc(O)c(O)c1)C(O)C2 (stereo not given) | – | 2.95 | –
8 | O=c1cc(-c2ccc(O)cc2)oc2c([C@@H]3O[C@H](CO)[C@@H](O)[C@H](O)[C@H]3O)c(O)cc(O)c12 [VITEXIN] | 0.216 | 0.205 | –
9 | O=c1c(O)c(-c2ccccc2)oc2ccccc12 [FLAVONOL] | 0.707 | 0.484 | –
10 | O=c1c(-c2ccc(O)cc2)coc2cc(O)cc(O)c12 [GENISTEIN] | 0.123 | 0.095 | –
11 | Oc1cc(O)c2c(c1)O[C@H](c1cc(O)c(O)c(O)c1)[C@H](O)C2 [EPIGALLOCATECHIN] | 3.71 | 3.56 | –
12 | COc1ccc([C@@H]2CC(=O)c3c(O)cc(O[C@@H]4O[C@H](CO[C@@H]5O[C@@H](C)[C@H](O)[C@@H](O)[C@H]5O)[C@@H](O)[C@H](O)[C@H]4O)cc3O2)cc1O [HESPERIDIN] | 0.104 | 0.075 | –
13 | C[C@@H]1O[C@@H](O[C@H]2[C@H](Oc3cc(O)c4c(c3)O[C@H](c3ccc(O)cc3)CC4=O)O[C@H](CO)[C@@H](O)[C@@H]2O)[C@H](O)[C@H](O)[C@H]1O [NARINGIN] | 0.098 | 0.077 | –
14 | O=c1c(O)c(-c2ccc(O)c(O)c2)oc2cc(O)cc(O)c12 [QUERCETIN] | 4.42 | 4.6 | –
15 | O=C(O)[C@H]1O[C@@H](Oc2cc3oc(-c4ccccc4)cc(=O)c3c(O)c2O)[C@H](O)[C@@H](O)[C@@H]1O [BAICALIN] | 1.55 | 1.79 | –
16 | O=c1cc(-c2ccc(O)c(O)c2)oc2cc(O[C@@H]3O[C@H](CO)[C@@H](O)[C@H](O)[C@H]3O)cc(O)c12 [GALUTEOLIN] | 1.47 | 1.39 | –
17 | O=C1O[C@H]([C@@H](O)CO)C(O)=C1O | – | – | 100
18 | C[C@@H]1O[C@@H](Oc2c(-c3ccc(O)c(O)c3)oc3cc(O)cc(O)c3c2=O)[C@H](O)[C@H](O)[C@H]1O [QUERCITRIN] | 2.18 | 2.57 | –
19 | C[C@@H]1O[C@@H](OC[C@H]2O[C@@H](Oc3c(-c4ccc(O)c(O)c4)oc4cc(O)cc(O)c4c3=O)[C@H](O)[C@@H](O)[C@@H]2O)[C@H](O)[C@H](O)[C@H]1O [RUTIN] | 2.02 | 2.33 | –
20 | O=c1c(-c2ccc(O)cc2)coc2cc(O)ccc12 [DAIDZEIN] | 0.101 | 0.033 | –

Row | Compound | Activity [1] [MU] | Activity [2] [MU] | Activity [3] [mg/L]
21 | Oc1cc(O)c2c(c1)O[C@H](c1ccc(O)c(O)c1)[C@H](O)C2 [(-)-EPICATECHIN] | 3.08 | 3.18 | –
22 | O=c1c(O[C@@H]2O[C@H](CO)[C@@H](O)[C@H](O)[C@H]2O)c(-c2ccc(O)c(O)c2)oc2cc(O)cc(O)c12 [ISOQUERCETIN] | 2.39 | 2.16 | –
23 | O=C(O[C@@H]1Cc2c(O)cc(O)cc2O[C@@H]1c1cc(O)c(O)c(O)c1)c1cc(O)c(O)c(O)c1 [EPIGALOCATECHIN GALLATE] | 5.95 | 6.08 | –
24 | Oc1cc(O)c2c(c1)O[C@H](c1ccc(O)c(O)c1)[C@H](O)[C@H]2c1c(O)cc(O)c2c1O[C@H](c1ccc(O)c(O)c1)[C@@H](O)C2 [PROCYANIDIN B1] | 6.14 | 5.94 | –
25 | O=C1C[C@@H](c2ccc(O)cc2)Oc2cc(O)cc(O)c21 [NARINGENIN] | 0.217 | 0.136 | –
26 | Oc1cc(O)c2c(c1)O[C@H](c1ccc(O)c(O)c1)[C@H](O)[C@H]2c1c(O)cc(O)c2c1O[C@H](c1ccc(O)c(O)c1)[C@H](O)[C@H]2c1c(O)cc(O)c2c1O[C@H](c1ccc(O)c(O)c1)[C@H](O)C2 [PROCYANIDIN C1] | 8.29 | 8.79 | –
27 | O=c1c(-c2ccc(O)cc2)coc2cc(O[C@@H]3O[C@H](CO)[C@@H](O)[C@H](O)[C@H]3O)cc(O)c12 [GENISTIN] | 0.077 | 0.026 | –
28 | O=c1cc(-c2ccc(O)cc2)oc2cc(O)cc(O)c12 [APIGENIN] | 0.086 | 0.041 | –
29 | Oc1cc(O)c2c(c1)O[C@H](c1ccc(O)c(O)c1)[C@@H](O)C2 [CATECHIN] | 3.04 | – | –
30 | O=c1c(O)c(-c2cc(O)c(O)c(O)c2)oc2cc(O)cc(O)c12 [MYRICETIN] | 1.31 | 1.38 | –
31 | O=C(O[C@H]1Cc2c(O)cc(O)cc2O[C@@H]1c1ccc(O)c(O)c1)c1cc(O)c(O)c(O)c1 [CATECHIN GALLATE] | 5.25 | 5.56 | –
32 | O=C(O[C@@H]1Cc2c(O)cc(O)cc2O[C@@H]1c1ccc(O)c(O)c1)c1cc(O)c(O)c(O)c1 [EPICATECHIN GALLATE] | 5.29 | 5.26 | –
33 | O=c1c(O)c(-c2ccc(O)cc2)oc2cc(O)cc(O)c12 [KAEMPFEROL] | 1.59 | 1.32 | –
34 | O=c1cc(-c2ccccc2)oc2cc(O)c(O)c(O)c12 [BAICALEIN] | 2.56 | 2.74 | –
35 | C[C@@H]1O[C@@H](Oc2cc(O)c3c(=O)c(O[C@@H]4O[C@H](CO)[C@@H](O)[C@H](O)[C@H]4O)c(-c4ccc(O)c(O)c4)oc3c2)[C@@H](O)[C@H](O)[C@@H]1O | 1.56 | 1.63 | –
36 | COc1cc2c(=O)c(-c3ccc(O)cc3)coc2cc1O [GLYCITEIN] | 0.097 | 0.02 | –
37 | COc1ccc([C@@H]2CC(=O)c3c(O)cc(O)cc3O2)cc1O [HESPERETIN] | 0.403 | 0.268 | –
38 | O=c1c(-c2ccc(O)cc2)coc2cc(O[C@@H]3O[C@H](CO)[C@@H](O)[C@H](O)[C@H]3O)ccc12 [DAIDZIN] | 0.072 | 0.035 | –
39 | O=C(/C=C/c1ccc(O)c(O)c1)c1ccc(O)cc1O [BUTEIN] | 2.42 | 2.27 | –
